Assay results reported in PMC7849180 (Frontiers in Pharmacology, 2020).

Key:
[1] = Plasma pharmacokinetics, multiple ascending dose (MAD), 10 days; format: in vivo, human
Description: MAD study was conducted after evaluating the tolerance of the single dose 100 mg cohort. In MAD part, volunteers were designed into five cohorts (100 mg q24h, 150 mg q24h, 100 mg q12h, 200 mg q24h, 150 mg q12h). […] The MAD part was initiated after the safety and tolerance evaluation from SAD 100 mg cohorts. Progression to higher MAD doses was allowed after review the safety data of the prior MAD cohorts.
For MAD cohorts, blood samples were collected at 0, 0.25, 0.5, 1, 1.5, 2, 3, 4, 5, 6, 8 and 12 h on day 1; 0 h on day 2, 3, 4, 6 and 7; 0, 0.25, 0.5, 1, 1.5, 2, 3, 4, 5, 6, 8, 12, 24, 36 and 48 h on day 10. In food effect cohort, blood samples were collected at 0, 0.25, 0.5, 1, 1.5, 2, 3, 4, 5, 6, 8, 12, 24, 36, 48, 72, 96 and 120 h in period one of group A; 0, 0.25, 0.5, 1, 1.5, 2, 3, 4, 5, 6, 8, 12, 24, 36 and 48 h in period two of group A and the two periods of group B. Blood samples were centrifuged at 3,000 rpm for 10 min at 2–8 °C and stored at -80 °C until liquid chromatography-mass spectrophotometry (LC-MS/MS) analysis. Urine and feces samples were collected in period one of group A of food effect cohort with the intervals 0, 0–6, 6–12, 12–24, 24–48, 48–72, 72–96, 96–120 and 0–120 h, respectively. […]

[2] = tested on: cells transformed by selected oncogenic mutants of tyrosine kinases; experiment: Inhibition of transformed cells; format: cell-based
JAK2 = JAK2 (Homo sapiens, UniProt O60674); experiment: Phosphorylation of STAT3 by JAK2; format: biochemical
Description: Suzhou Zelgen Biopharmaceuticals Co., Ltd. Jaktinib Hydrochloride Tablets Chemical Drug Class 1 New Drug has been completed. The ongoing toxicity tests include a long-term 39-week toxicity test in Beagle dogs by oral administration, a reproductive toxicity test in rats during the teratogenic sensitive period, and a reproductive toxicity test in rabbits during the teratogenic sensitive period.
Preclinical Pharmacodynamic Study
Study on the in vitro Pharmacodynamic Effects of ZG0163 at the […]
In this study, the effects of ZG0163 was similar to those of positive control compounds, ZG0164 and ZG0178.
Study on the in vitro Pharmacodynamic Effects of ZG0163 at the Cellular Level (Ba/F3-EpoR-JAK2V617F cells)
JAK2V617F cell line, the compound ZG0163 was able to induce apoptosis of pathogenic cells and eliminate abnormal cell proliferation by inhibiting the JAK-STAT signaling pathway, thus achieving treatment efficacy in myeloproliferative neoplasms. […]
cell line, manifested as significant inhibition of phosphorylation of JAK2 and its downstream signaling proteins ERK and STAT5. The effects of ZG0163 was similar to those of positive control compounds, ZG0164 and ZG0178.
EpoR-JAK2V617F, which was similar to those of positive control compounds, ZG0164

Sequence of JAK2 (O60674 whole entry): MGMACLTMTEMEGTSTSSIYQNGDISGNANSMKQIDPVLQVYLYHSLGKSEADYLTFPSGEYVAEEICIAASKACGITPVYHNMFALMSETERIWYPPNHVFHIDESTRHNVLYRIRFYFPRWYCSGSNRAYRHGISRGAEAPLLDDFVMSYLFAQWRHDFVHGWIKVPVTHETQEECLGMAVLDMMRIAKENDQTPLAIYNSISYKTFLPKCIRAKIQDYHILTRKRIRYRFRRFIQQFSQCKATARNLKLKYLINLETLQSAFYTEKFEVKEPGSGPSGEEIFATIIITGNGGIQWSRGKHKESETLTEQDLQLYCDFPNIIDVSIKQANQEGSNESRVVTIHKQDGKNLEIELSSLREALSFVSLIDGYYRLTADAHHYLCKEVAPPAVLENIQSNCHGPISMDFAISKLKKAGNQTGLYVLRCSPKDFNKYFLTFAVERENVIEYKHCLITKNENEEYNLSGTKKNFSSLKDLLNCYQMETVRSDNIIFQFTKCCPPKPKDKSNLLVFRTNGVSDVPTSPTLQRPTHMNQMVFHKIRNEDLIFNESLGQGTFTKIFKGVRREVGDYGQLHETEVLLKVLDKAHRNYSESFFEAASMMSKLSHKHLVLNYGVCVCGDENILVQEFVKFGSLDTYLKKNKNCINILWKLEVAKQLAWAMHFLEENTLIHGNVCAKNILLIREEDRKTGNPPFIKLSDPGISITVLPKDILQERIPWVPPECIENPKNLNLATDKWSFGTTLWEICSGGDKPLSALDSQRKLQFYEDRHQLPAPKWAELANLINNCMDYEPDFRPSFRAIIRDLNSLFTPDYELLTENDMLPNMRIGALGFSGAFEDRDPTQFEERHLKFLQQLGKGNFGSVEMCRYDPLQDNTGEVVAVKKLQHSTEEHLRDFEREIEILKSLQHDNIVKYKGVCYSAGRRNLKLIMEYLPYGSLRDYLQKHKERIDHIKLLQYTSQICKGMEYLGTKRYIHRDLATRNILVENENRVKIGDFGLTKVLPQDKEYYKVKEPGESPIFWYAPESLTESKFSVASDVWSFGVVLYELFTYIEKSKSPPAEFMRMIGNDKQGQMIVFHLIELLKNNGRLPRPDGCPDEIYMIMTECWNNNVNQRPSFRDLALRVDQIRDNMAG

Substance: Jaktinib
- accumulation factor Rac (90% CI) ([1]; 100 mg q12h): 1.24
- Cmax, geometric mean (CV%) ([1]; 100 mg q12h, Day 1): 204.68 (36.2) ng/ml
- Tmax, median (min–max) ([1]; 100 mg q12h, Day 1): 1.50 (0.50–4.00) h
- Cmax, geometric mean (CV%) ([1]; 100 mg q12h, Day 10): 226.87 (33.2) ng/ml
- Cmin,ss, geometric mean (CV%) ([1]; 100 mg q12h, Day 10): 27.565 (96.3) ng/ml
- Fluctuation, geometric mean (CV%) ([1]; 100 mg q12h, Day 10): 204.463 (31.3) %
- Tmax, median (min–max) ([1]; 100 mg q12h, Day 10): 3.00 (0.50–4.00) h
- accumulation factor Rac (90% CI) ([1]; 100 mg q24h): 0.98
- Cmax, geometric mean (CV%) ([1]; 100 mg q24h, Day 1): 182.68 (73.4) ng/ml
- Tmax, median (min–max) ([1]; 100 mg q24h, Day 1): 2.00 (1.00–4.00) h
- Cmax, geometric mean (CV%) ([1]; 100 mg q24h, Day 10): 150.84 (76.7) ng/ml
- Cmin,ss, geometric mean (CV%) ([1]; 100 mg q24h, Day 10): 8.217 (169.4) ng/ml
- Fluctuation, geometric mean (CV%) ([1]; 100 mg q24h, Day 10): 290.146 (45.7) %
- Tmax, median (min–max) ([1]; 100 mg q24h, Day 10): 1.50 (1.00–4.00) h
- accumulation factor Rac (90% CI) ([1]; 150 mg q12h): 1.38
- Cmax, geometric mean (CV%) ([1]; 150 mg q12h, Day 1): 295.08 (52.6) ng/ml
- Tmax, median (min–max) ([1]; 150 mg q12h, Day 1): 2.00 (1.00–4.00) h
- Cmax, geometric mean (CV%) ([1]; 150 mg q12h, Day 10): 470.78 (38.2) ng/ml
- Cmin,ss, geometric mean (CV%) ([1]; 150 mg q12h, Day 10): 26.868 (39.2) ng/ml
- Fluctuation, geometric mean (CV%) ([1]; 150 mg q12h, Day 10): 274.265 (17.3) %
- Tmax, median (min–max) ([1]; 150 mg q12h, Day 10): 1.25 (0.50–2.00) h
- accumulation factor Rac (90% CI) ([1]; 150 mg q24h): 1.16
- Cmax, geometric mean (CV%) ([1]; 150 mg q24h, Day 1): 236.94 (88.6) ng/ml
- Tmax, median (min–max) ([1]; 150 mg q24h, Day 1): 3.00 (1.00–6.00) h
- Cmax, geometric mean (CV%) ([1]; 150 mg q24h, Day 10): 250.23 (70.3) ng/ml
- Cmin,ss, geometric mean (CV%) ([1]; 150 mg q24h, Day 10): 14.342 (71.1) ng/ml
- Fluctuation, geometric mean (CV%) ([1]; 150 mg q24h, Day 10): 281.461 (29.1) %
- Tmax, median (min–max) ([1]; 150 mg q24h, Day 10): 2.50 (1.00–5.00) h
- accumulation factor Rac (90% CI) ([1]; 200 mg q24h): 0.94
- Cmax, geometric mean (CV%) ([1]; 200 mg q24h, Day 1): 327.37 (36.6) ng/ml
- Tmax, median (min–max) ([1]; 200 mg q24h, Day 1): 2.50 (1.50–4.00) h
- Cmax, geometric mean (CV%) ([1]; 200 mg q24h, Day 10): 296.88 (58.3) ng/ml
- Cmin,ss, geometric mean (CV%) ([1]; 200 mg q24h, Day 10): 10.798 (125.4) ng/ml
- Fluctuation, geometric mean (CV%) ([1]; 200 mg q24h, Day 10): 390.098 (38.5) %
- Tmax, median (min–max) ([1]; 200 mg q24h, Day 10): 3.00 (1.50–4.00) h
- time to steady state ([1]; continuous administration, trough concentrations): approximately 4 days
- IC50 [2]: 100 nM
- IC50 (JAK2): ~100 nM
